Laboratory results taken from patent publication US20220409633A1, “COMPOSITION COMPRISING BUDESONIDE FOR OPHTHALMIC USE” (NTC S.R.L., priority 2019, published 2022).

Columns and labels:
[1] = Average size distribution of micronized budesonide powder by laser diffractometer; type: physicochemical; details: FIG. 5
Text: Preferably, said budesonide has an average size distribution shown in the diagram of FIG. 5, and in tabular form in Table A.1 below (in which the numerical values are expressed in μm).
In Table A.1, the parameters Dx(10), Dx(50) and Dx(90) respectively indicate that 10%, 50% and 90% by weight of the particles analysed have a dimensional distribution below the numerical values (expressed in μm) indicated in such Table.
For example, the average size distribution could be determined by means of a Spraytec laser diffractometer (Malvern Panalytics, UK), preferably using the instrumental operating parameters shown in Table A.2 below, where the parameters not specified in such table were maintained as per default specifications of the laser diffractometer.

[2] = Cumulative distribution Q3% (HELOS Particle Size Analysis) of budesonide powder; type: physicochemical; details: FIG. 4
Text: FIGS. 3 and 4 respectively show a diagram of the Cumulative Distribution Q3% (HELOS Particle Size Analysis) with respect to the particle size in μm, and a table corresponding to said diagram of the Cumulative Distribution with standard deviation, according to a possible embodiment of the budesonide that can be used in this invention. […] In this range of there is half the total weight, almost as in the remaining […]; Said budesonide is obtained and supplied by the manufacturer already in this form according to an average size distribution shown in the diagram of FIG. 3, and in tabular form in FIG. 4, which show the cumulative distribution Q3% with respect to the particle size in μm.

[3] = cited from earlier work

Dx(10) ([1]; 10% by weight of particles below this size): 1.10 μm
Dx(50) ([1]; 50% by weight of particles below this size): 2.02 μm
Dx(90) ([1]; 90% by weight of particles below this size): 3.68 μm
Cumulative Distribution Q3% ([2]; x0/μm=2,50): 90,32%
Cumulative Distribution Q3% ([2]; x0/μm=3.75): 99,01%
SMILES: CCCC1O[C@@H]2C[C@H]3[C@@H]4CCC5=CC(=O)C=C[C@]5(C)[C@H]4[C@@H](O)C[C@]3(C)[C@]2(C(=O)CO)O1 (stereo partly drawn) [budesonide]
solubility in water [3]: not water-soluble
